Laboratory results taken from ChEMBL document CHEMBL1201862, “PubChem BioAssay data set” (2004).
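Dose response: 5 concentrations. Exposure: 48 h. Format: 96-well plates. Endpoint: linear interpolation; highest concentration if not reached. The concentration for 50% growth inhibition is given as GI50.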 The source made the active and inactive calls. Rule as the data show it: active = GI50 up to about 1.1 µM and inactive = higher.

How the values were obtained:
Assay in all cases: NCI-60 cell line screen, 48 h
SF-295 = tested on: SF-295
MDA-MB-435 = tested on: MDA-MB-435
BT-549 = tested on: BT-549
MDA-MB-231 = tested on: MDA-MB-231
SN12C = tested on: SN12C
HOP-92 = tested on: HOP-92
HOP-62 = tested on: HOP-62
OVCAR-8 = tested on: OVCAR-8
KM12 = tested on: KM12
A549 = tested on: A549
IGROV-1 = tested on: IGROV-1
MOLT-4 = tested on: MOLT-4
M14 = tested on: M14
Malme-3M = tested on: Malme-3M
HCT-116 = tested on: HCT-116
HCC 2998 = tested on: HCC 2998
DU-145 = tested on: DU-145
HCT-15 = tested on: HCT-15
CAKI-1 = tested on: CAKI-1
SF-268 = tested on: SF-268
UACC-257 = tested on: UACC-257
NCI-H460 = tested on: NCI-H460
OVCAR-4 = tested on: OVCAR-4
CCRF-CEM = tested on: CCRF-CEM
NCI-H522 = tested on: NCI-H522
T47D = tested on: T47D
Hs-578T = tested on: Hs-578T
SK-MEL-5 = tested on: SK-MEL-5
U-251 = tested on: U-251
SF-539 = tested on: SF-539
MCF7 = tested on: MCF7
SK-MEL-28 = tested on: SK-MEL-28
SR = tested on: SR
SW-620 = tested on: SW-620
SNB-19 = tested on: SNB-19
UO-31 = tested on: UO-31
A498 = tested on: A498
NCI-H23 = tested on: NCI-H23
PC-3 = tested on: PC-3
ACHN = tested on: ACHN
RPMI-8226 = tested on: RPMI-8226
TK-10 = tested on: TK-10
SK-MEL-2 = tested on: SK-MEL-2
OVCAR-5 = tested on: OVCAR-5
HL-60 = tested on: HL-60
RXF 393 = tested on: RXF 393
COLO 205 = tested on: COLO 205
NCI/ADR-RES = tested on: NCI/ADR-RES
NCI-H226 = tested on: NCI-H226
MDA-N = tested on: MDA-N
LOX IMVI = tested on: LOX IMVI
HT-29 = tested on: HT-29
EKVX = tested on: EKVX
786-0 = tested on: 786-0
UACC-62 = tested on: UACC-62
SK-OV-3 = tested on: SK-OV-3
OVCAR-3 = tested on: OVCAR-3
K562 = tested on: K562
SNB-75 = tested on: SNB-75

Q: How did the GI50 (SF-295) turn out when `O=C1c2ccc(O)cc2OC(c2cc(O)c(O)c(O)c2)C1O` (stereo not given) [DIHYDROBINETIN] was run?
A: 21.8 µM (inactive)

Q: What about the GI50 (MDA-MB-435) of the same compound?
A: 19.8 µM (inactive)

Q: What about the GI50 (BT-549) of the same compound?
A: 20.5 µM (inactive)

Q: And the GI50 (MDA-MB-231)?
A: 21.1 µM (inactive)

Q: What about the GI50 (SN12C) of the same compound?
A: 20.4 µM (inactive)

Q: What about the GI50 (HOP-92) of the same compound?
A: > 100 µM (inactive)

Q: What about the GI50 (HOP-62) of the same compound?
A: 35.5 µM (inactive)

Q: And the GI50 (OVCAR-8)?
A: 22 µM (inactive)

Q: What about the GI50 (KM12) of the same compound?
A: 26.7 µM (inactive)

Q: And the GI50 (A549)?
A: > 100 µM (inactive)

Q: What about the GI50 (IGROV-1) of the same compound?
A: 18 µM (inactive)

Q: What about the GI50 (MOLT-4) of the same compound?
A: 19.1 µM (inactive)

Q: And the GI50 (M14)?
A: > 100 µM (inactive)

Q: What about the GI50 (Malme-3M) of the same compound?
A: > 100 µM (inactive)

Q: What about the GI50 (HCT-116) of the same compound?
A: 22 µM (inactive)

Q: And the GI50 (HCC 2998)?
A: 31.6 µM (inactive)

Q: What about the GI50 (DU-145) of the same compound?
A: 47.3 µM (inactive)

Q: What about the GI50 (HCT-15) of the same compound?
A: 33.7 µM

Q: And the GI50 (CAKI-1)?
A: 53.8 µM (inactive)

Q: What about the GI50 (SF-268) of the same compound?
A: 34.1 µM (inactive)

Q: What about the GI50 (UACC-257) of the same compound?
A: 34.8 µM (inactive)

Q: And the GI50 (NCI-H460)?
A: 19.8 µM (inactive)

Q: And the GI50 (OVCAR-4)?
A: 37.9 µM (inactive)

Q: What about the GI50 (CCRF-CEM) of the same compound?
A: 24.1 µM (inactive)

Q: And the GI50 (NCI-H522)?
A: 24.8 µM (inactive)

Q: What about the GI50 (T47D) of the same compound?
A: 37.8 µM (inactive)

Q: What about the GI50 (Hs-578T) of the same compound?
A: 70.1 µM (inactive)

Q: And the GI50 (SK-MEL-5)?
A: 33 µM (inactive)

Q: What about the GI50 (U-251) of the same compound?
A: 22.5 µM (inactive)

Q: What about the GI50 (SF-539) of the same compound?
A: 21.5 µM (inactive)

Q: What about the GI50 (MCF7) of the same compound?
A: 25.7 µM (inactive)

Q: And the GI50 (SK-MEL-28)?
A: 46.8 µM (inactive)

Q: And the GI50 (SR)?
A: 20.5 µM (inactive)

Q: And the GI50 (SW-620)?
A: 25 µM (inactive)

Q: What about the GI50 (SNB-19) of the same compound?
A: 41.4 µM (inactive)

Q: And the GI50 (UO-31)?
A: 67.8 µM (inactive)

Q: What about the GI50 (A498) of the same compound?
A: 28.1 µM (inactive)

Q: And the GI50 (NCI-H23)?
A: 34.5 µM (inactive)

Q: What about the GI50 (PC-3) of the same compound?
A: > 100 µM (inactive)

Q: And the GI50 (ACHN)?
A: 25.8 µM (inactive)

Q: What about the GI50 (RPMI-8226) of the same compound?
A: 17.8 µM (inactive)

Q: What about the GI50 (TK-10) of the same compound?
A: 23.6 µM (inactive)

Q: And the GI50 (SK-MEL-2)?
A: 33.1 µM (inactive)

Q: And the GI50 (OVCAR-5)?
A: 58.2 µM (inactive)

Q: And the GI50 (HL-60)?
A: 19.9 µM (inactive)

Q: What about the GI50 (RXF 393) of the same compound?
A: > 100 µM (inactive)

Q: And the GI50 (COLO 205)?
A: 32.4 µM (inactive)

Q: What about the GI50 (NCI/ADR-RES) of the same compound?
A: 25.1 µM (inactive)

Q: And the GI50 (NCI-H226)?
A: 39.1 µM (inactive)

Q: What about the GI50 (MDA-N) of the same compound?
A: 18.4 µM (inactive)

Q: What about the GI50 (LOX IMVI) of the same compound?
A: 19.1 µM (inactive)

Q: And the GI50 (HT-29)?
A: 23.4 µM (inactive)

Q: What about the GI50 (EKVX) of the same compound?
A: 19 µM (inactive)

Q: What about the GI50 (786-0) of the same compound?
A: 23.8 µM (inactive)

Q: What about the GI50 (UACC-62) of the same compound?
A: 30.1 µM (inactive)

Q: What about the GI50 (SK-OV-3) of the same compound?
A: > 100 µM (inactive)

Q: What about the GI50 (OVCAR-3) of the same compound?
A: 47.9 µM (inactive)

Q: How did the GI50 (SF-295) turn out when `COC(=O)c1ccc(/C=C2\CCc3ccccc3C2=O)cc1` was run?
A: > 100 µM (inactive)

Q: And the GI50 (MDA-MB-435)?
A: > 100 µM (inactive)

Q: And the GI50 (BT-549)?
A: > 100 µM (inactive)

Q: What about the GI50 (MDA-MB-231) of the same compound?
A: > 100 µM (inactive)

Q: What about the GI50 (SN12C) of the same compound?
A: > 100 µM (inactive)

Q: And the GI50 (HOP-92)?
A: > 100 µM (inactive)

Q: What about the GI50 (HOP-62) of the same compound?
A: > 100 µM (inactive)

Q: What about the GI50 (OVCAR-8) of the same compound?
A: > 100 µM (inactive)

Q: What about the GI50 (KM12) of the same compound?
A: > 100 µM (inactive)

Q: And the GI50 (A549)?
A: > 100 µM (inactive)

Q: What about the GI50 (IGROV-1) of the same compound?
A: > 100 µM (inactive)

Q: What about the GI50 (MOLT-4) of the same compound?
A: > 100 µM (inactive)

Q: What about the GI50 (M14) of the same compound?
A: > 100 µM (inactive)

Q: And the GI50 (Malme-3M)?
A: > 100 µM (inactive)

Q: What about the GI50 (HCT-116) of the same compound?
A: > 100 µM (inactive)

Q: What about the GI50 (HCC 2998) of the same compound?
A: > 100 µM (inactive)

Q: And the GI50 (DU-145)?
A: > 100 µM (inactive)

Q: And the GI50 (HCT-15)?
A: > 100 µM

Q: What about the GI50 (CAKI-1) of the same compound?
A: > 100 µM (inactive)

Q: And the GI50 (SF-268)?
A: > 100 µM (inactive)

Q: What about the GI50 (UACC-257) of the same compound?
A: > 100 µM (inactive)

Q: And the GI50 (NCI-H460)?
A: > 100 µM (inactive)

Q: And the GI50 (OVCAR-4)?
A: > 100 µM (inactive)

Q: And the GI50 (CCRF-CEM)?
A: > 100 µM (inactive)

Q: And the GI50 (NCI-H522)?
A: 69.7 µM (inactive)

Q: And the GI50 (T47D)?
A: > 100 µM (inactive)

Q: And the GI50 (Hs-578T)?
A: > 100 µM (inactive)

Q: And the GI50 (SK-MEL-5)?
A: > 100 µM (inactive)

Q: And the GI50 (U-251)?
A: > 100 µM (inactive)

Q: And the GI50 (SF-539)?
A: > 100 µM (inactive)

Q: What about the GI50 (MCF7) of the same compound?
A: > 100 µM (inactive)

Q: What about the GI50 (SK-MEL-28) of the same compound?
A: > 100 µM (inactive)

Q: And the GI50 (SR)?
A: > 100 µM (inactive)

Q: And the GI50 (SW-620)?
A: > 100 µM (inactive)

Q: And the GI50 (K562)?
A: > 100 µM (inactive)

Q: And the GI50 (SNB-19)?
A: > 100 µM (inactive)

Q: And the GI50 (UO-31)?
A: > 100 µM (inactive)

Q: What about the GI50 (A498) of the same compound?
A: 34.4 µM (inactive)

Q: And the GI50 (NCI-H23)?
A: > 100 µM (inactive)

Q: And the GI50 (PC-3)?
A: > 100 µM (inactive)

Q: What about the GI50 (ACHN) of the same compound?
A: > 100 µM (inactive)

Q: And the GI50 (RPMI-8226)?
A: > 100 µM (inactive)

Q: What about the GI50 (TK-10) of the same compound?
A: > 100 µM (inactive)

Q: What about the GI50 (OVCAR-5) of the same compound?
A: > 100 µM (inactive)

Q: And the GI50 (SNB-75)?
A: > 100 µM (inactive)

Q: What about the GI50 (HL-60) of the same compound?
A: > 100 µM (inactive)

Q: And the GI50 (RXF 393)?
A: > 100 µM (inactive)

Q: And the GI50 (COLO 205)?
A: > 100 µM (inactive)

Q: What about the GI50 (NCI/ADR-RES) of the same compound?
A: > 100 µM (inactive)

Q: And the GI50 (NCI-H226)?
A: > 100 µM (inactive)

Q: What about the GI50 (MDA-N) of the same compound?
A: > 100 µM (inactive)

Q: What about the GI50 (LOX IMVI) of the same compound?
A: > 100 µM (inactive)

Q: And the GI50 (HT-29)?
A: > 100 µM (inactive)

Q: What about the GI50 (EKVX) of the same compound?
A: > 100 µM (inactive)

Q: And the GI50 (786-0)?
A: > 100 µM (inactive)

Q: What about the GI50 (UACC-62) of the same compound?
A: > 100 µM (inactive)

Q: And the GI50 (SK-OV-3)?
A: > 100 µM (inactive)

Q: And the GI50 (OVCAR-3)?
A: > 100 µM (inactive)
